Here are results for five compounds from publication PMC5094990, “Novel 1, 3-N, O-Spiroheterocyclic compounds inhibit heparanase activity and enhance nedaplatin-induced cytotoxicity in cervical cancer cells” (Oncotarget, 2016).

Read-outs that look alike come from different tables or passages of the source.

Data set [1] concerns h-TERT. Briefly: h-TERT expression in HeLa and Siha cells (western blot and PCR). Type of data set: cell-based, human. As to conditions: both HeLa and Siha cells, 50 μM, 48 hours. On the procedure:
(§1) Cells were washed with precooled PBS after being treated with inhibitor for 48 hours, and cell lysis solution was added to extract protein. The sample concentration was measured by the bicinchoninic acid method. 30 μg of protein was separated by 10% polyacrylamide gel electrophoresis (PAGE) and transferred to polyvinylidene difluoride membranes. After blocking in non-fat milk solution at room temperature, the membranes were incubated with diluted primary antibodies against either proteins of interest or β-actin overnight at 4°C. After consecutive washes, the membranes were incubated with secondary antibody (diluted 1:5000) at room temperature for 1 h. Then, the membranes were developed with enhanced chemiluminescence and imaged with ImageQuant LAS4000 (GE Healthcare Life Sciences, Pittsburgh, PA). The grey values of protein bands were analyzed using Image J (National Institutes of Health, USA). The relative levels of proteins of interest were calculated in comparison to the internal reference β-actin. The experiment was repeated three times.
(§2) Levels of HPA, p53, c-Myc, and hTERT mRNA were analyzed by real-time PCR. mRNA was extracted from cells and separated and purified with Trizol. The total RNA concentration was measured with an ultraviolet spectrophotometer. The quality of total RNA was assessed using 1.5% agarose gel electrophoresis. […]

The subject of data set [2] is Siha cells. Briefly: MTT assay, growth inhibition of Siha cells. Type of data set: cell-based, human. On the procedure:
(§3) Cells were cultured in improved medium supplemented with 10% FBS and kept at 37°C in a […] humidified atmosphere containing 5% CO2. Logarithmic phase cells were used for the experiment and were treated with different concentrations of different medications for different amounts of time. […] Inhibitors were made into 10 mM stock solutions with DMSO, filtered, and kept at room temperature away from light. These inhibitor stock solutions were diluted to the required concentration (1, 5, 15, 30, 60, 120, 180, or 240 μM) before every experiment. The final doses of nedaplatin were […]. In order to determine whether an HPA inhibitor sensitized cells to nedaplatin, 10 μM of inhibitor number 16 (No. 16) was added into each experimental well with nedaplatin.
(§4) 200 μl of single-cell suspension at a density of 5 × 10^4 cells/ml was seeded into 96-well plates. […] OD values were measured at the wavelength of 492 nm with a reference wavelength of 630 nm. Inhibition rate (IR) in the cells was calculated as follows: IR = ((OD2-OD0)-(OD1-OD0))/(OD2-OD0) × 100%, where OD0 was the OD value of blank wells, OD2 was the value of normal control wells, and OD1 was the value of experimental wells. […]

Data set [3] has as its system HeLa cells. Briefly: Cell wound healing assay (migration), HeLa cells. As to conditions: 50 μM, 24 hours, compared to control. Type of data set: cell-based, human. Here is the method: (§5) Straight lines 0.5 cm apart from each other were marked on the bottoms of culture dishes opposite the label lines. Logarithmic phase cells were seeded into 35 mm culture dishes. Nicks were made 0.5 cm apart on the bottom of the dish along the labeled lines with a 200 μl sterile pipette tip after cells were close to saturated. Dishes were then washed with sterile PBS three times, 2% FBS medium containing 0 or 50 μM of No. 16 inhibitor was added, and dishes were incubated for 24 hours. The scratch width was photographed under phase contrast on an inverted microscope with a digital camera (100× magnification). The experiment was repeated three times.

The test system of data set [4] is c-Myc. Briefly: c-Myc expression in HeLa and Siha cells (western blot and PCR). As to conditions: both HeLa and Siha cells, 50 μM, 48 hours. It counts as cell-based, human. Here is the method:
as §1, §2
(In general: In western blotting, separated proteins are transferred to a membrane and probed.)

The subject of data set [5] is p53. In words: p53 expression in HeLa and Siha cells (western blot and PCR). It counts as cell-based, human. The following applies: both HeLa and Siha cells, 50 μM, 48 hours. On the procedure: as §1, §2
Data set [6] relates to HPA. Briefly: HPA expression in HeLa and Siha cells (immunocytochemical staining, western blot, real time PCR). It counts as cell-based, human. The following applies: 50 μM, 24 hours, stronger after 48 hours. The text has this:
The experiment was repeated three times.
The experiment was repeated twice.

In data set [7] the test system is Siha cells. In words: Cell wound healing assay (migration), Siha cells. Type of data set: cell-based, human. The following applies: 50 μM, 24 hours, compared to control. On the procedure: as §5
Data set [8] has as its system HaCaT human normal keratinocytes. Briefly: MTT assay, growth inhibition of HaCaT cells. It counts as cell-based. The following applies: time not given. On the procedure: as §3, §4
Data set [9] has as its system HaCaT cells. Briefly: Cell wound healing assay (migration), HaCaT cells. It counts as cell-based, human. As to conditions: 50 μM, 24 hours, compared to control. Here is the method:
as §5

The subject of data set [10] is HeLa cells. Briefly: MTT assay, growth inhibition of HeLa cells. It counts as cell-based, human. As to conditions: for IC50 / inhibition at 1 µM / inhibition at 5 µM / inhibition at 15 µM / inhibition at 30 µM / inhibition at 60 µM / inhibition at 120 µM / inhibition at 180 µM / inhibition at 240 µM: Homo sapiens, HeLa; for inhibition at 1 µM / inhibition at 5 µM / inhibition at 15 µM / inhibition at 30 µM / inhibition at 60 µM / inhibition at 120 µM / inhibition at 180 µM / inhibition at 240 µM: read-out: Growth inhibition rate in HeLa cells. On the procedure:
as §3
200 μl of single-cell suspension at a density of 5 × 10^4 cells/ml was seeded into 96-well plates. When cells were adherent, the medium was replaced with 200 μl of medium containing different concentrations of inhibitor or nedaplatin, and the cells were further incubated for 24 hours to 96 hours respectively. 20 μl MTT solution ([…] in phosphate buffered saline (PBS)) was added to each well 4 hours before the treatment ended. The cells were then incubated for another 4 hours, after which the supernatants were removed. The cells were totally solubilized in 150 μl DMSO. OD values were measured at the wavelength of 492 nm with a reference wavelength of 630 nm. Inhibition rate (IR) in the cells was calculated as follows: IR = ((OD2-OD0)-(OD1-OD0))/(OD2-OD0) × 100%, where OD0 was the OD value of blank wells, OD2 was the value of normal control wells, and OD1 was the value of experimental wells. Each condition was replicated in six separate wells.
(Formazan colour is commonly taken as a measure of viable cells.)

The target in data set [11] is T1, human recombinant HPA (Homo sapiens, UniProt Q9Y251).
T1 sequence (Q9Y251 158-543 limits assumed): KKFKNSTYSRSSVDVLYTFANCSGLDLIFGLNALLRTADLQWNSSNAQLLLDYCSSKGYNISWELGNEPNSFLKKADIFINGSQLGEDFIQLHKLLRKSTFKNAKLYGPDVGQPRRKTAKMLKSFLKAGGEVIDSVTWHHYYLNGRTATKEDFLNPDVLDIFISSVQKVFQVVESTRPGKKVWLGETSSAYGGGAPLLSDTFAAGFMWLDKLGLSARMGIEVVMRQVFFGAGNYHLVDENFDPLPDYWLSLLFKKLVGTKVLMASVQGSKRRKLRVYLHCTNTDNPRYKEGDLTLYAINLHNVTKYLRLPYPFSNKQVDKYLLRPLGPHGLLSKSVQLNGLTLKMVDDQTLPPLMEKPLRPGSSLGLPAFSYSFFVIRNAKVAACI
T1 sequence (Q9Y251 36-109 limits assumed): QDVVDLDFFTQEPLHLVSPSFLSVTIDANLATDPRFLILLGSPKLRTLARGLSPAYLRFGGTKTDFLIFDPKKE
In words: Detection of HPA activity inhibition (Heparan Degrading Enzyme Assay Kit). Type of data set: biochemical. As to conditions: 31 mIU human recombinant HPA, 37°C, 45 minutes; read-out: IC50, inhibitory effect on heparanase activity. Here is the method:
The final reaction volume of each vial was 100 μl. […] Then, 100 μl of terminating liquid was added into each well. OD values were examined at a wavelength of 450 nm. Each concentration was tested in three separate wells. GraphPad Prism 5 (GraphPad Prism Software Inc., San Diego) was used to calculate the inhibitory IC50 values.

Setting [12] is: 48 hours, MTT, read-out: IC50, growth inhibition of HeLa cells.

As to `COc1ccc(C2CNC(c3ccccc3F)OC23CCCCC3)cc1` (centres unmarked) [No. 16], the melting point – broadly, the temperature, or range, at which the solid turns liquid – was in the range of 171.3 to 172.5 °C. Also, in data set [1], the “Effect on h-TERT expression” value is given as “decreased”. Further, in data set [2] (Homo sapiens, SiHa, read-out: IC50, growth inhibition of Siha cells), the IC50 – broadly, the concentration at which inhibition is half-maximal – was 78.8 µM. The “Effect on cell migration (scratch width)” value in data set [3] was “inhibited the migration”. In addition, the “Effect on c-Myc expression” value in data set [4] is reported as “decreased”. Also, the “Effect on p53 expression” value in data set [5] was “increased”. Besides, the “Effect on HPA levels” value in data set [6] is recorded as “reduced HPA levels”. Further, the “Effect on cell migration (scratch width)” value in data set [7] is “inhibited the migration”. The same compound had an IC50 in [8] of 1710 µM. Moreover, in data set [9], the “Effect on cell migration (scratch width)” value was “minimal”. The IC50 in [10] (48 h, read-out: IC50, growth inhibition of HeLa cells, 48 hours, MTT) is 48.2 µM. In [10], the inhibition – broadly, how much of the control response was suppressed – at 1 µM was found to be 7.41 ± 0.976%; the inhibition at 5 µM worked out at 11 ± 0.467%; the inhibition at 15 µM worked out at 20.2 ± 0.779%; the inhibition at 30 µM turned out to be 36.5 ± 0.471%. For the same compound, in [10], the inhibition at 60 µM is 59.3 ± 1.1%, the inhibition at 120 µM was determined as 87.6 ± 0.891%, the inhibition at 180 µM was determined as 92.89 ± 0.537% and the inhibition at 240 µM worked out at 92.98 ± 0.237%.
In the case of `COc1ccc(C2CNC(c3ccc([N+](=O)[O-])cc3)OC23CCCCC3)cc1` (centres unmarked) [No. 15], the melting point was 111.3 to 112.5 °C. Further, the IC50 in [11] was found to be 28.8 µM. Further, the inhibition at 1 µM in data set [10] (1 μM, 48 hs, mean ± s) was determined as 9.12 ± 0.166%. For the same compound, in [10] (5 μM, 48 hs, mean ± s), the inhibition at 5 µM came to 17 ± 0.732%. Moreover, the inhibition at 15 µM in data set [10] (15 μM, 48 hs, mean ± s) amounted to 25.2 ± 0.947%. Besides, in data set [10] (30 μM, 48 hs, mean ± s), the inhibition at 30 µM was 33.2 ± 2.34%. In addition, in [10] (60 μM, 48 hs, mean ± s), the inhibition at 60 µM was found to be 36.2 ± 0.592%. The inhibition at 120 µM in data set [10] (120 μM, 48 hs, mean ± s) worked out at 77.5 ± 3.82%. Moreover, the inhibition at 180 µM in [10] (180 μM, 48 hs, mean ± s) turned out to be 92.4 ± 3.08%. For the same compound, in [10] (240 μM, 48 hs, mean ± s), the inhibition at 240 µM is 95.2 ± 3.11%. In data set [10] (setting [12]), the IC50 was 80 µM.
For the compound `[NH2][Pt]1([NH2])[O]CC(=O)[O]1` [nedaplatin], the “IC50, growth inhibition of Siha cells by nedaplatin alone” value in data set [2] (48 hours, nedaplatin alone) was found to be 11.204 µg/mL. Also, in [10] (48 hours, nedaplatin alone, listed as NDP), the “IC50, growth inhibition of HeLa cells by nedaplatin alone” value came out at 2.878 µg/mL.
With `COc1ccc(C2CNC(c3ccc(C)cc3)OC23CCCCC3)cc1` (centres unmarked) [No. 20], the melting point fell in the range of 105.4 to 106.7 °C. For the same compound, in [11], the IC50 is 14.1 µM. Further, the inhibition at 1 µM in data set [10] (1 μM, 48 hs, mean ± s) came to 5.01 ± 0.247%. Moreover, in [10] (5 μM, 48 hs, mean ± s), the inhibition at 5 µM was 5.02 ± 0.0834%. In addition, the inhibition at 15 µM in data set [10] (15 μM, 48 hs, mean ± s) came out at 13.3 ± 0.32%. The inhibition at 30 µM in data set [10] (30 μM, 48 hs, mean ± s) was 19.4 ± 1.34%. The inhibition at 60 µM in [10] (60 μM, 48 hs, mean ± s) is 38.49 ± 0.255%. In data set [10] (120 μM, 48 hs, mean ± s), the inhibition at 120 µM came to 66.3 ± 1.14%. Besides, the inhibition at 180 µM in [10] (180 μM, 48 hs, mean ± s) stood at 90.5 ± 1.12%. The inhibition at 240 µM in [10] (240 μM, 48 hs, mean ± s) was determined as 95.44 ± 0.525%. The IC50 in data set [10] (setting [12]) stood at 77.6 µM.
Compound `COc1ccc(C2CNC(c3c(F)cccc3F)OC23CCCCC3)cc1` (centres unmarked) displayed a melting point of 131.7 to 132.6 °C.
